Experiment in all cases: biochemical
Design in all cases: Eurofins KinaseProfiler full panel at Km ATP, residual kinase activity (%) relative to DMSO

In assay [1] the target is T1, CK2(h) (Homo sapiens, UniProt P68400).
T1 construct: gene CSNK2A1
The gist of the method: (§1)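 Two 10 µM single-concentration screens were run: a competition-binding screen, in which DNA-tagged kinase bound to immobilized ligands was quantified by qPCR, and a radiometric activity panel at Km ATP. Each is expressed as residual kinase activity (%).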

For assay [2], the target named is T2, CRIK(h) (Homo sapiens, UniProt O14578).
T2 construct: gene CIT
T2 sequence (O14578 whole entry): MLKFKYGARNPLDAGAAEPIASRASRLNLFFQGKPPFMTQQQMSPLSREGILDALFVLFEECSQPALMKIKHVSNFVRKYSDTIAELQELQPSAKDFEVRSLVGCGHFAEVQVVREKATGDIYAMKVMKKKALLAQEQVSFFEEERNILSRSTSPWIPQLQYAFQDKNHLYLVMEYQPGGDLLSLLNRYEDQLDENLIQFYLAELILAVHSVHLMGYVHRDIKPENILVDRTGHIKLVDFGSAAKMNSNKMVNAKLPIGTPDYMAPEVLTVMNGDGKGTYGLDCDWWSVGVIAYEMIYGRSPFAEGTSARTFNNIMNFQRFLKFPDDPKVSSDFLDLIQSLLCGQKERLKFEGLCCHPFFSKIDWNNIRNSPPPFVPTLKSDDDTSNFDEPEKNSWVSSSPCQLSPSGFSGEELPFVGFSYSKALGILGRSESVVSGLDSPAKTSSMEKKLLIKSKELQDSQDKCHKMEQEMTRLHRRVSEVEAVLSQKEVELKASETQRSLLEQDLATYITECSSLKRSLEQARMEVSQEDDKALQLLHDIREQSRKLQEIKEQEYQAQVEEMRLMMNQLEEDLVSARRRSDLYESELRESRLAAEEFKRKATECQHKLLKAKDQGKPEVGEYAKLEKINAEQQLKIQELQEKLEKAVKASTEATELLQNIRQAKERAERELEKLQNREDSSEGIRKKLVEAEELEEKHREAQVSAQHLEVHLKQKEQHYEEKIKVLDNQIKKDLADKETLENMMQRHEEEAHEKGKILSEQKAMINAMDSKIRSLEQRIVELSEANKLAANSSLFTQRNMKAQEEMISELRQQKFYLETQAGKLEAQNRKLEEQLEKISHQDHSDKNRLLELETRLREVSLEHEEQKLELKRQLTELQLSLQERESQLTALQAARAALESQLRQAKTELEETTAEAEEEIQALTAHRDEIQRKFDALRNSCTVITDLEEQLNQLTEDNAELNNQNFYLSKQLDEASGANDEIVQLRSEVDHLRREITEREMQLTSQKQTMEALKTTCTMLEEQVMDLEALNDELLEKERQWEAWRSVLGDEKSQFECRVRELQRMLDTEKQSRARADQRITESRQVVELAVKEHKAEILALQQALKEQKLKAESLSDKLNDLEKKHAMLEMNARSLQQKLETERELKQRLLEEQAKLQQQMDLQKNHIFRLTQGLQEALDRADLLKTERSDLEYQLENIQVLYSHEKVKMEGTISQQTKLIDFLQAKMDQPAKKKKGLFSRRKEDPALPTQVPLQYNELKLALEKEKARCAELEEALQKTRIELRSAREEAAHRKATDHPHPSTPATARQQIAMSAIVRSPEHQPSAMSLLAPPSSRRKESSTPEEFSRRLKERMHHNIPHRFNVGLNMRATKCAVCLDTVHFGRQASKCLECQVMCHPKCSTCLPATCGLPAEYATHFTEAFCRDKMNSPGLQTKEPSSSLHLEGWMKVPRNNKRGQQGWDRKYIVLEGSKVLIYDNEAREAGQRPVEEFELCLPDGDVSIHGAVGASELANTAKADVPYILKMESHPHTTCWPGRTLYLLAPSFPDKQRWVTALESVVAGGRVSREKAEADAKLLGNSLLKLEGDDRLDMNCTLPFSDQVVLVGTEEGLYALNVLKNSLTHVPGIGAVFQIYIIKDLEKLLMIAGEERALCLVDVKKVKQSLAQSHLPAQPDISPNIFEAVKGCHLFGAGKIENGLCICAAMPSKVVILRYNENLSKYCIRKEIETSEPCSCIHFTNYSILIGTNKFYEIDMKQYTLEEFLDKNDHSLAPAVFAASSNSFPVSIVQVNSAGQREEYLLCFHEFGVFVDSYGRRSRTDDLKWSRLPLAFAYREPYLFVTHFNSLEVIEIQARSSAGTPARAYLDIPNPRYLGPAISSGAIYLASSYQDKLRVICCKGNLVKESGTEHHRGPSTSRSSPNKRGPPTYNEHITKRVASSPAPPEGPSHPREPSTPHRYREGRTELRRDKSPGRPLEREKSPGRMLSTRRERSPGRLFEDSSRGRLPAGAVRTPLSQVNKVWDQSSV
Put shortly: as §1

Assay [3] addresses DAPK2(h) (Homo sapiens, UniProt Q9UIK4). Put shortly:
as §1

The target in assay [4] is T3, MSK1(h) (Homo sapiens, UniProt O75582).
T3 construct: gene RPS6KA5
T3 sequence (O75582 whole entry): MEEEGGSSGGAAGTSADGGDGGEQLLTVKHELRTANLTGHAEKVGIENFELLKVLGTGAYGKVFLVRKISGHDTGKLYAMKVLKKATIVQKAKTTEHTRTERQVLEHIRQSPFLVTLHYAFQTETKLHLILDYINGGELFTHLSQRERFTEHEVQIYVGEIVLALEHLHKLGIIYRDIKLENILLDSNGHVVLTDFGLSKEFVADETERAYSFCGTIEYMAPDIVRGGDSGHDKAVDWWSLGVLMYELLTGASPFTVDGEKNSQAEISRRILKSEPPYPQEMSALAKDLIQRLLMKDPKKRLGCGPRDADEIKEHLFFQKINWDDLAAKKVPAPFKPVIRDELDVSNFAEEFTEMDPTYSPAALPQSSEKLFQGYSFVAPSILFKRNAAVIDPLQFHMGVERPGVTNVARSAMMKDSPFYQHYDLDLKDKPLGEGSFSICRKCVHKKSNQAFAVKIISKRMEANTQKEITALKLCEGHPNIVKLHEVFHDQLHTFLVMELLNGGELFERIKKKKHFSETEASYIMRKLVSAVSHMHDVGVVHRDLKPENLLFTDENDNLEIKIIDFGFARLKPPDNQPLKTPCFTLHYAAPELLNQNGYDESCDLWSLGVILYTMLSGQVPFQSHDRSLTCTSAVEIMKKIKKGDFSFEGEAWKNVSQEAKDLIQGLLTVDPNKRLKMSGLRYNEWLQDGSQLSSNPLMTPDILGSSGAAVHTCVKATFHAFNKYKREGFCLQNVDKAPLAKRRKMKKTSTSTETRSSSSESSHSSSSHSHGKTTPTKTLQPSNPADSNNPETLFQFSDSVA
Put shortly:
as §1

In assay [5] the target is T4, PI3 Kinase (p110b/p85a)(h) (Homo sapiens, UniProt P42338).
T4 construct: gene PIK3CB
T4 sequence (P42338 whole entry): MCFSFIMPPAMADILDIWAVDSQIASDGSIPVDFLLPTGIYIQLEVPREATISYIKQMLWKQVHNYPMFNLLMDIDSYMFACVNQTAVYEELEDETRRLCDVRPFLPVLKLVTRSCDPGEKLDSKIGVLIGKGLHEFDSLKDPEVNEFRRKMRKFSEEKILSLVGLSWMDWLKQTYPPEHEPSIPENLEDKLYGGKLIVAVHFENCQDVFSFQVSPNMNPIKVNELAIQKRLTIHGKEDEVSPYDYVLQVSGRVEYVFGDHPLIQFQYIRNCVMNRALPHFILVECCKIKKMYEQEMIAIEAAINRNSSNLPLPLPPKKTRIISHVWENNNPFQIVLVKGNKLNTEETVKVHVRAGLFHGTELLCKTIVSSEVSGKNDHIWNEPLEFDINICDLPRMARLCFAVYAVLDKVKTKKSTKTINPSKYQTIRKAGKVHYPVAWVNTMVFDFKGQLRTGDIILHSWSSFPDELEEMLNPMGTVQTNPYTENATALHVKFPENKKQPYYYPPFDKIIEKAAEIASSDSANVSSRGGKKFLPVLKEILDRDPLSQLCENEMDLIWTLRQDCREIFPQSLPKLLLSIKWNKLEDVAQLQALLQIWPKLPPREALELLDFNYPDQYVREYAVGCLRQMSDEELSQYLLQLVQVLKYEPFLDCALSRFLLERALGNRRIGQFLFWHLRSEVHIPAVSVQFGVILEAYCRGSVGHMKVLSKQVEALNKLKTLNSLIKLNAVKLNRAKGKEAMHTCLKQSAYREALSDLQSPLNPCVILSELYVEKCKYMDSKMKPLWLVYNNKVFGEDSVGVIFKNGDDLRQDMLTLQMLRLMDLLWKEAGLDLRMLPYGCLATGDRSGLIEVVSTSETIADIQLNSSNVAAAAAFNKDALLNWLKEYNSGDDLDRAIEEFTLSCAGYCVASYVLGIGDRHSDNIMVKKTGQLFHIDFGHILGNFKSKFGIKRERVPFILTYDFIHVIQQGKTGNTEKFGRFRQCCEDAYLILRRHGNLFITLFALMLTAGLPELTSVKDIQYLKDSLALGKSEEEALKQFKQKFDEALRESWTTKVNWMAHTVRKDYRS
T4 sequence (P27986 whole entry partner): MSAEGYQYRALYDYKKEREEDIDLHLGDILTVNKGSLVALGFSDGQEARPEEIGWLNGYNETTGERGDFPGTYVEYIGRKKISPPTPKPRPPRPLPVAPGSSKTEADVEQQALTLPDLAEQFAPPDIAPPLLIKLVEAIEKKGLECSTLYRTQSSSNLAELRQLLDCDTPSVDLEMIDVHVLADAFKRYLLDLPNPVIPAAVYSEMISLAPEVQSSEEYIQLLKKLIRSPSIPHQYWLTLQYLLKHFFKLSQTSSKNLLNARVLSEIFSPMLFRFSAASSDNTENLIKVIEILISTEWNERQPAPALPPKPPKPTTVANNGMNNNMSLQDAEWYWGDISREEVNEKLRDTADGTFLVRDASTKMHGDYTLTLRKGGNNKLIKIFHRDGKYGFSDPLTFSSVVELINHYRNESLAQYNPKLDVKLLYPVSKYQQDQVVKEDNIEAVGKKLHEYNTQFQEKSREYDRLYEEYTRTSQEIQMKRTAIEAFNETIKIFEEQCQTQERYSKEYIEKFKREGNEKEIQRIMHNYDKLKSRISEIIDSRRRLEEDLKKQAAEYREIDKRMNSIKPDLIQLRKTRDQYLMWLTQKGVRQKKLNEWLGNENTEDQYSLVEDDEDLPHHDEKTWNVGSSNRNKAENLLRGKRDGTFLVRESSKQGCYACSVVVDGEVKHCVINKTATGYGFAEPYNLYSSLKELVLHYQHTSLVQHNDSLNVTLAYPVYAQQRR
Put shortly:
as §1

Assay [6] has as its target T5, PKCδ(h) (Homo sapiens, UniProt Q05655).
T5 construct: gene PRKCD
Put shortly:
as §1

The target of assay [7] is T6, PKD3(h) (Homo sapiens, UniProt O94806).
T6 construct: gene PRKD3
T6 sequence (O94806 1-890): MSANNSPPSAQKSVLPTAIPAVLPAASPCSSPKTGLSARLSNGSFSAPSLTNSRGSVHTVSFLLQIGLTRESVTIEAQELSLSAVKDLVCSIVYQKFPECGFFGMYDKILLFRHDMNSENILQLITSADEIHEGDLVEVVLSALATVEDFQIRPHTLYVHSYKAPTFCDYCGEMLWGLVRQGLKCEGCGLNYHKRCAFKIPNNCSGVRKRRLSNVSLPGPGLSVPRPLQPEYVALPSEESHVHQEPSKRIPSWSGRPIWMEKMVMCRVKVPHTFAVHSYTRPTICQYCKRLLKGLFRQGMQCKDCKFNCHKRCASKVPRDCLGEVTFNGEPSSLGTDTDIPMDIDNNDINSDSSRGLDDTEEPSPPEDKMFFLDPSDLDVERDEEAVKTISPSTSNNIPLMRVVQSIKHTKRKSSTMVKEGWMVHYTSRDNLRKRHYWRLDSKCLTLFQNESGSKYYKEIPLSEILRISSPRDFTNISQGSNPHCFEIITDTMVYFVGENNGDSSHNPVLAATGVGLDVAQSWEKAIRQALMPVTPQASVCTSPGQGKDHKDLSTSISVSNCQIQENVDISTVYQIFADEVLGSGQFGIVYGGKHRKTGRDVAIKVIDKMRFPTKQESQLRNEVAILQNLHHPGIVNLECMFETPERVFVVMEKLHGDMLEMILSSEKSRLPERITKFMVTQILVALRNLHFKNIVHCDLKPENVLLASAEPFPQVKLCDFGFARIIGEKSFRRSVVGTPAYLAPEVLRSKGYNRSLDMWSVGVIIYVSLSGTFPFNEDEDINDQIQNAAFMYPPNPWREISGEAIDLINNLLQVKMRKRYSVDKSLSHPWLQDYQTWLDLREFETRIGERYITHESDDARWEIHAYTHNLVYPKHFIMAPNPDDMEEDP
Put shortly: as §1

Assay [8] has as its target T7, PhKγ1(h) (Homo sapiens, UniProt Q16816).
T7 construct: gene PHKG1
The gist of the method:
as §1

The target in assay [9] is T8, SGK(h) (Homo sapiens, UniProt O00141).
T8 construct: gene SGK1
T8 sequence (O00141 1-431): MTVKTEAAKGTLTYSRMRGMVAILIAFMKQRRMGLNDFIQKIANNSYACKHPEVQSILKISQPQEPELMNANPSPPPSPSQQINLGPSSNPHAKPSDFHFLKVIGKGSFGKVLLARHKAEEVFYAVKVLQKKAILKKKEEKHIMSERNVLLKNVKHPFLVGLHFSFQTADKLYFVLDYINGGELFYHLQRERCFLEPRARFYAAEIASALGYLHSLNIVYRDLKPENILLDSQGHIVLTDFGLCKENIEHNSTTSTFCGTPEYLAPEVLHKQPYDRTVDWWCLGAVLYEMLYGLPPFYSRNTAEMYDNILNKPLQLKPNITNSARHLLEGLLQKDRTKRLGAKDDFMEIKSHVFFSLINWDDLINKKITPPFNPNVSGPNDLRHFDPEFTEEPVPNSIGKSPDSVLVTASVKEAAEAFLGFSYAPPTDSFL
The gist of the method: as §1

The mark [10] stands for this setting: read-out: Residual activity (%) Spautin-1 5aa.
The mark [11] stands for this setting: read-out: Residual activity (%) 5as.
The mark [12] stands for this setting: read-out: Residual activity (%) 5at.
Setting [13] is: read-out: Residual activity (%) 5ay.

Read-outs that look alike come from different tables or passages of the source.

DAPK2(h), sequence (Q9UIK4 whole entry): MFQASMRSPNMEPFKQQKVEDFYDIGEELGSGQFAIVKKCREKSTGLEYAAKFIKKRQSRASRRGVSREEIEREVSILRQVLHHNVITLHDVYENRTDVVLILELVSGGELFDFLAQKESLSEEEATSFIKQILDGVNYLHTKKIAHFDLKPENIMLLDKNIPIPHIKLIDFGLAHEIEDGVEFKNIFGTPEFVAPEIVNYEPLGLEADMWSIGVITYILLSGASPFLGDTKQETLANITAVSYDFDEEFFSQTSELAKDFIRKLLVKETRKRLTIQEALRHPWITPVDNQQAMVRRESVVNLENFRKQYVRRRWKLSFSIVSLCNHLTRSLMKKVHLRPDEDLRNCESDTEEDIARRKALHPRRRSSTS

As to `Fc1ccc(CNc2ncnc3ccc(F)cc23)cc1` [5aa, 6-Fluoro-N-(4-fluorobenzyl)-4-Quinazolinamine], the remaining activity at 10 µM was 83% in assay [1] (setting [10]); 90% in assay [2] (setting [10]); 94% in [3] (setting [10]); 90% in assay [4] (setting [10]); 102% in assay [5] (setting [10]); 81% in assay [6] (setting [10]). Besides, the remaining activity at 10 µM came to 100% in assay [7] (setting [10]), 102% in assay [8] (setting [10]) and 82% in assay [9] (setting [10]).

As for `Fc1ccc(CCNc2ncnc3ccc(F)cc23)cc1` [5as, 6-Fluoro-N-[2-(4-Fluorophenyl)Ethyl]-4-Quinazolinamine], the remaining activity at 10 µM stood at 78% in [1] (setting [11]); 101% in assay [2] (setting [11]); 100% in [3] (setting [11]); 70% in assay [4] (setting [11]); 99% in [5] (setting [11]); 97% in assay [6] (setting [11]). Moreover, the remaining activity at 10 µM was 114% in assay [7] (setting [11]), 120% in assay [8] (setting [11]) and 86% in [9] (setting [11]).

`Fc1ccc2ncnc(NCCc3ccc(Cl)cc3)c2c1` [5at, N-[2-(4-Chlorophenyl)Ethyl]-6-Fluoro-4-Quinazolinamine]: the remaining activity at 10 µM stood at 87% in assay [1] (setting [12]); 89% in assay [2] (setting [12]); 101% in assay [3] (setting [12]); 79% in assay [4] (setting [12]); 93% in assay [5] (setting [12]); 88% in assay [6] (setting [12]). Also, the remaining activity at 10 µM in [7] (setting [12]) was found to be 102%; in [8] (setting [12]), 141%; in assay [9] (setting [12]) it was 92%.

With `COc1ccc2ncnc(Nc3cccc(F)c3)c2c1` [5ay, N-(3-Fluorophenyl)-6-Methoxy-4-Quinazolinamine], the remaining activity at 10 µM worked out at 75% in assay [1] (setting [13]); 76% in assay [2] (setting [13]); 91% in [3] (setting [13]); 74% in assay [4] (setting [13]); 103% in assay [5] (setting [13]); 75% in assay [6] (setting [13]). Also, the remaining activity at 10 µM in [7] (setting [13]) stood at 91%; in [8] (setting [13]), 121%; in [9] (setting [13]), 82%.

Source of the values: article PMC7827406, “Structure–Activity Relationship (SAR) Study of Spautin-1 to Entail the Discovery of Novel NEK4 Inhibitors” (International Journal of Molecular Sciences, 2021).
